These results are taken from patent US12478624B2, “Heterocyclic derivatives, pharmaceutical compositions and their use in the treatment or amelioration of cancer” (Tolremo Therapeutics AG, priority 2019, dated 2025).

Molecules are shown by their SMILES.

As a reminder, the EC50 is the midpoint of the concentration-response curve.

The first experiment has as its system A375 cells. In words: Assay 1: A375 cells treated with S1152, S1008 and compound, immunofluorescence (sc-365823) signal. Conditions: 1 μM S1152 + 0.5 μM S1008, one day. In kind it is cell-based. As to the method:
One thousand four hundred A375 cells were seeded in each well of a 384 well microplate. One day later they were treated with 1 μM S1152 (Selleckchem) in dimethyl sulfoxide, 0.5 μM S1008 (Selleckchem) and dose ranges of invention compounds for one day in Dulbecco's Modified Eagle's Medium supplemented with 10% fetal calf serum and 2 mM (2S)-2-amino-4-carbamoylbutanoic acid. Wells were incubated with 4% polyoxymethylene (Sigma Aldrich 158127) at ambient temperature. […] After one minute phosphate-buffered saline was replaced with 0.2% polyethylene glycol octylphenyl ether in phosphate-buffered saline. […] 1% aminoethanoic acid in phosphate-buffered saline was added for ten minutes at ambient temperature. […] After one hour at ambient temperature in the dark, signal in wells was measured with a Acumen Cellista. 3,8-Diamino-5-[3-(diethylmethylammonio)propyl]-6-phenylphenanthridinium diiodide-positive objects were defined in FL3 (565-600 nm) with a perimeter between 50-800 μm and a total intensity of 10000-1000000 FLU. Signal in FL2 (500-530 nm) was measured in defined objects. A normalized ratio of total In FL2 over total In FL3 staining was log transformed. A non-linear regression (variable slope, 4 parameters) was used to calculate EC50 values using GraphPad Prism (Version 7.0d).
In an alternative procedure, assay 1 has been affected by changing the counteratain. […] Cells were incubated with 0.5 μg/ml 2-(4-Amidinophenyl)-6-indolecarbamidine dihydrochloride, 4′,6-Diamidino-2-phenylindole dihydrochloride (Sigma D9542) in phosphate-buffered saline for at least 30 minutes at ambient temperature in the dark. A Celigo Imager (Nexcelom) was used to acquire images in the blue and green channel. The blue channel was used as a mask to define the area for the green signal. The average integrated intensity of the green signal was normalized and a non-linear regression (variable slope, 4 parameter) was used to calculate the EC50 values using GraphPad Prism (Version 8.4)
Turning to `[2H]C([2H])([2H])[C@H]1CC[C@@H](c2nc(Nc3cncc(C)c3)cc(-c3cnccn3)n2)CN1C(C)=O` [Compound 000012], the EC50 is below 200 nM.

As to `CC(=O)N1C[C@H](c2nc(Nc3cccc(F)c3)cc(-c3cncc(O)c3)n2)CC[C@@H]1C` (stereo in doubt) [Compound 00005], the concentration for a half-maximal effect (EC50) is below 200 nM. For the compound `CC(=O)N1C[C@H](c2nc(Nc3ccc4nccnc4c3)cc(-c3cccnc3)n2)CC[C@@H]1C` [Compound 00120, 1-((2S,5R)-2-methyl-5-(4-(pyridin-3-yl)-6-(quinoxalin-6-ylamino)pyrimidin-2-yl)piperidin-1-yl)ethan-1-one], the EC50 is below 200 nM. With `CC(=O)N1C[C@@H](c2nc(Nc3ccncc3)cc(-c3cccnc3)n2)CC[C@H]1C` [Compound 00007], the EC50 is above 10000 nM. Same read-out and setting: in the case of `CC(=O)N1C[C@H](c2nc(Nc3cc(F)cc(-c4nnco4)c3)cc(-c3cccnc3)n2)CC[C@@H]1C` [Compound 00166, 1-((2S,5R)-5-(4-((3-fluoro-5-(1,3,4-oxadiazol-2-yl)phenyl)amino)-6-(pyridin-3-yl)pyrimidin-2-yl)-2-methylpiperidin-1-yl)ethan-1-one] it was below 200 nM. Same read-out and setting: in the case of `CC(=O)N1C[C@H](c2nc(Nc3ccnc(C)c3)cc(-c3cncc(C4COC4)c3)n2)CC[C@@H]1C` [Compound 00127, 1-((2S,5R)-2-methyl-5-(4-((2-methylpyridin-4-yl)amino)-6-(5-(oxetan-3-yl)pyridin-3-yl)pyrimidin-2-yl)piperidin-1-yl)ethan-1-one] it was below 200 nM; in that of `CC(=O)N1C[C@H](c2nc(Nc3cncc(C)c3)cc(-c3cncc4[nH]ccc34)n2)CC[C@@H]1C` (racemic) [Compound 00099, (+/−)-cis-1-(2-methyl-5-(4-((5-methylpyridin-3-yl)amino)-6-(1H-pyrrolo[2,3-c]pyridin-4-yl)pyrimidin-2-yl)piperidin-1-yl)ethan-1-one], 200 to 1000 nM; in that of `CC(=O)N1C[C@@H](c2nc(Nc3cncc(C)c3)cc(-c3cnccn3)n2)CC[C@H]1C` [Compound 00002, 1-((2R,5S)-2-methyl-5-(4-((5-methylpyridin-3-yl)amino)-6-(pyrazin-2-yl)pyrimidin-2-yl)piperidin-1-yl)ethan-1-one], above 10000 nM.

`CC(=O)N1C[C@H](c2nc(Nc3ccc(O)cc3)cc(-c3cccnc3)n2)CC[C@@H]1C` [Compound 00071, 1-((2S,5R)-5-(4-((4-hydroxyphenyl)amino)-6-(pyridin-3-yl)pyrimidin-2-yl)-2-methylpiperidin-1-yl)ethan-1-one]: the EC50 was 200 to 1000 nM. Still for that read-out and setting: with `[2H]C([2H])([2H])[C@@H]1CC[C@H](c2nc(Nc3cncc(C)c3)cc(-c3cnccn3)n2)CN1C(C)=O` [Compound 00011] the figure was above 10000 nM. Consider `CC(=O)N1C[C@H](c2nc(Nc3ccc4[nH]nnc4c3)cc(-c3cccnc3)n2)CC[C@@H]1C` [Compound 00033, 1-((2S,5R)-5-(4-((1H-benzo[d][1,2,3]triazol-5-yl)amino)-6-(pyridin-3-yl)pyrimidin-2-yl)-2-methylpiperidin-1-yl)ethan-1-one], for which the 50% effective concentration (EC50) was in the range of 200 to 1000 nM. On the same count and under the same terms, with `CC(=O)N1C[C@H](c2nc(Nc3cncc(C(F)F)c3)cc(-c3cnccn3)n2)CC[C@@H]1C` [Compound 00129, 1-((2S,5R)-5-(4-((5-(difluoromethyl)pyridin-3-yl)amino)-6-(pyrazin-2-yl)pyrimidin-2-yl)-2-methylpiperidin-1-yl)ethan-1-one] the figure was below 200 nM; with `CC(=O)Nc1ccc(Nc2cc(-c3cccnc3)nc([C@@H]3CC[C@H](C)N(C(C)=O)C3)n2)cc1O` [Compound 00036, N-(4-((2-((3R,6S)-1-acetyl-6-methylpiperidin-3-yl)-6-(pyridin-3-yl)pyrimidin-4-yl)amino)-2-hydroxyphenyl)acetamide], 1000 to 10000 nM; with `COc1cncc(-c2cc(Nc3cccc(Cl)c3)nc([C@@H]3CC[C@H](C)N(C(C)=O)C3)n2)c1` (racemic) [Compound 00016, (+/−)-cis-1-(5-(4-((3-chlorophenyl)amino)-6-(5-methoxypyridin-3-yl)pyrimidin-2-yl)-2-methylpiperidin-1-yl)ethan-1-one], below 200 nM. Same read-out and setting: in the case of `CC(=O)N1C[C@H](c2nc(Nc3ccc4nc[nH]c4c3)cc(-c3cccnc3)n2)CC[C@@H]1C` [Compound 00032, 1-((2S,5R)-5-(4-((1H-benzo[d]imidazol-6-yl)amino)-6-(pyridin-3-yl)pyrimidin-2-yl)-2-methylpiperidin-1-yl)ethan-1-one] it was 200 to 1000 nM.

With `CC(=O)N1C[C@H](c2nc(Nc3ccncc3)cc(-c3cccnc3)n2)CC[C@@H]1C` [Compound 00006], the EC50 is 200 to 1000 nM. Still for that read-out and setting: in the case of `CC(=O)N1C[C@H](c2nc(Nc3cccc(C)c3)cc(-c3cccnc3)n2)CC[C@@H]1C(F)(F)F` (racemic) [Compound 00022, (+/−)-c/s-1-(5-(4-(pyridin-3-yl)-6-(m-tolylamino)pyrimidin-2-yl)-2-(trifluoromethyl)piperidin-1-yl)ethan-1-one] it was 200 to 1000 nM. The same measure, in the same setting: in the case of `CC(=O)N1C[C@H](c2nc(Nc3ccc4c(c3)NC(=O)C4)cc(-c3cccnc3)n2)CC[C@@H]1C` [Compound 00076, 6-((2-((3R,6S)-1-acetyl-6-methylpiperidin-3-yl)-6-(pyridin-3-yl)pyrimidin-4-yl)amino)indolin-2-one] it was 200 to 1000 nM; in that of `CC(=O)N1C[C@H](c2nc(Nc3ccc4nc(C)oc4c3)cc(-c3cccnc3)n2)CC[C@@H]1C` [Compound 00037, 1-((2S,5R)-2-methyl-5-(4-((2-methylbenzo[d]oxazol-6-yl)amino)-6-(pyridin-3-yl)pyrimidin-2-yl)piperidin-1-yl)ethan-1-one], 200 to 1000 nM.

Staying with this experiment, now noted: Homo sapiens, A-375, 24 h, 1 μM S1152 + 0.5 μM S1008, one day.
Take `CC(=O)N1C[C@H](c2nc(Nc3cccc(F)c3)cc(-c3cccnc3)n2)CC[C@@H]1C(F)F` (racemic) [Compound 00025, (+/−)-c/s-1-(2-(difluoromethyl)-5-(4-((3-fluorophenyl)amino)-6-(pyridin-3-yl)pyrimidin-2-yl)piperidin-1-yl)ethan-1-one]: the EC50 is 1000 to 10000 nM.

Turning to `CC(=O)N1C[C@H](c2nc(Nc3cncc(C)c3)cc(-c3cncnc3)n2)CC[C@@H]1C` (racemic) [Compound 00097, (+/−)-c/s-1-(2-methyl-5-(6-((5-methylpyridin-3-yl)amino)-[4,5′-bipyrimidin]-2-yl)piperidin-1-yl)ethan-1-one], the EC50 lay in the range of 1000 to 10000 nM.

In the case of `CC(=O)N1C[C@H](c2nc(Nc3cccc(F)c3)cc(-c3cccnc3)n2)CC[C@H]1C` [Compound 00015, (+/+)-trans-1-(5-(4-((3-fluorophenyl)amino)-6-(pyridin-3-yl)pyrimidin-2-yl)-2-methylpiperidin-1-yl)ethan-1-one], the EC50 is above 10000 nM. Still for that read-out and setting: with `CC[C@H]1CC[C@@H](c2nc(Nc3cccc(F)c3)cc(-c3cccnc3)n2)CN1C(C)=O` (racemic) [Compound 00020, (+/−)-c/s-1-(2-ethyl-5-(4-((3-fluorophenyl)amino)-6-(pyridin-3-yl)pyrimidin-2-yl)piperidin-1-yl)ethan-1-one] the figure was 1000 to 10000 nM. `CC[C@@H]1CC[C@@H](c2nc(Nc3cccc(F)c3)cc(-c3cccnc3)n2)CN1C(C)=O` (racemic) [Compound 00021, (+/−)-trans-1-(2-ethyl-5-(4-((3-fluorophenyl)amino)-6-(pyridin-3-yl)pyrimidin-2-yl)piperidin-1-yl)ethan-1-one]: the EC50 is above 10000 nM.

As for `CC[C@H]1CC[C@@H](c2nc(Nc3cccc(C)c3)cc(-c3cccnc3)n2)CN1C(C)=O` (racemic) [Compound 00018, (+/−)-cis-1-(2-ethyl-5-(4-(pyridin-3-yl)-6-(m-tolylamino)pyrimidin-2-yl)piperidin-1-yl)ethan-1-one], the 50% effective concentration (EC50) is 1000 to 10000 nM. Same read-out and setting: with `CC(=O)N1C[C@H](c2nc(Nc3cccc(F)c3)cc(-c3cccnc3)n2)CC[C@H]1C(F)(F)F` (racemic) [Compound 00024, (+/−)-trans-1-(5-(4-((3-fluorophenyl)amino)-6-(pyridin-3-yl)pyrimidin-2-yl)-2-(trifluoromethyl)piperidin-1-yl)ethan-1-one] the figure was above 10000 nM; with `CC[C@@H]1CC[C@@H](c2nc(Nc3cccc(C)c3)cc(-c3cccnc3)n2)CN1C(C)=O` (racemic) [Compound 00019, (+/−)-frans-1-(2-ethyl-5-(4-(pyridin-3-yl)-6-(m-tolylamino)pyrimidin-2-yl)piperidin-1-yl)ethan-1-one], above 10000 nM. Regarding `CC(=O)N1C[C@H](c2nc(Nc3cccc(F)c3)cc(-c3cccnc3)n2)CC[C@H]1C(F)F` (racemic) [Compound 00026, (+/−)-frans-1-(2-(difluoromethyl)-5-(4-((3-fluorophenyl)amino)-6-(pyridin-3-yl)pyrimidin-2-yl)piperidin-1-yl)ethan-1-one], the EC50 was above 10000 nM.
